Test results published in patent US8344027B2, “4-dimethylaminobutyric acid derivatives” (Hoffmann-La Roche Inc., priority 2008, dated 2013).

Columns and labels:
[1] = target: T1, hCPT2 (Homo sapiens, UniProt P23786); experiment: CPT2 inhibition, spectrophotometric DTNB (Ellman's reagent) assay; assay type: biochemical; conditions: human CPT2 expressed in P. pastoris, cell extract; carnitine 500 μM, palmitoyl-CoA 80 μM, DTNB 300 μM
T1 construct: made in house; host or cells: Pichia pastoris strain X-33
T1 sequence (P23786 26-658): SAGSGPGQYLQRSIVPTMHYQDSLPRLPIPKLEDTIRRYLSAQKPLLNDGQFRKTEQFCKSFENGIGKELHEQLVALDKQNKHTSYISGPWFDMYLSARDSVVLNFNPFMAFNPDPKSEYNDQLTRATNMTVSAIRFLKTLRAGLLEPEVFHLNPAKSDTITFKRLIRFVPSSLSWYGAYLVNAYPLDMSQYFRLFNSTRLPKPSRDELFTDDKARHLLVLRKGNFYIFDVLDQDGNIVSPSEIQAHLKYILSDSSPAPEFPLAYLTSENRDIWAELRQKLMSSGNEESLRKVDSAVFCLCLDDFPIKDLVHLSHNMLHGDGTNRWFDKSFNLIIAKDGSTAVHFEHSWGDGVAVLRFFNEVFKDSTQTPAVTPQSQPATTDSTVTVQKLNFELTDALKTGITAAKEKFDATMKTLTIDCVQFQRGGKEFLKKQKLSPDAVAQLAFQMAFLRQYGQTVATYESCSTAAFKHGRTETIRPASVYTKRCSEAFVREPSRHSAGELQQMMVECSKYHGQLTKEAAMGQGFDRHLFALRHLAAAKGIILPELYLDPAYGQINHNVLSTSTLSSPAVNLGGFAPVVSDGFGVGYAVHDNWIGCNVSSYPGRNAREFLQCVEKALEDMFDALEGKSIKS
Procedure: (§1) The following tests were carried out in order to determine the activity of the compounds of the present invention. Background information on the performed assays can be found in: Jackson et al., 1999, Biochem. J. 341, 483-489 and Jackson et al., 2000, J. Biol. Chem. 275, 19560-19566.
(§2) Human and rat CPT2- and liver CPT1 cDNAs, and human muscle CPT1 cDNA were subcloned in pGAPZB or pGAPZA, respectively. These plasmids were used to transform P. pastoris strain X-33 via electroporation after the preparation of electrocompetent cells. High copy number clones were selected where necessary using 0.5 or 1 mg/ml Zeocin. Cultures for activity measurements were induced for 16 h in YPD medium (1% yeast extract, 2% peptone, 2% glucose). Crude cell extracts were prepared by disrupting the cells with glass beads or French Press, depending on fermenter sizes. After centrifugation, the cell-free extracts were resuspended in cell breaking buffer (50 mM Tris, pH7.4, 100 mM KCl, 1 mM EDTA) in the presence of a protease inhibitor cocktail, before aliquoting and freezing at −20° C.
(§3) CPT activity was measured using a spectrophotometric assay using 5,5′-dithio-bis-(2-nitrobenzoic acid) (DTNB) also called Ellman's reagent. The HS-CoA released on the formation of acylcarnitine from carnitine (500 μM) and palmitoyl-CoA (80 μM) reduced DTNB (300 μM) forming 5-mercapto-2-nitrobenzoic acid which absorbed at 410 nm with a molar extinction coefficient of 13600 M^−1cm^−1. The assay buffer contained 120 mM KCl, 25 mM Tris, pH 7.4, 1 mM EDTA. This assay was used for the identification of CPT inhibitors, particularly/preferentially CPT2-selective inhibitors, versus the liver and muscle CPT1 isoforms.

[2] = target: T2, hL-CPT1 (Homo sapiens, UniProt P50416); experiment: liver CPT1 inhibition, spectrophotometric DTNB (Ellman's reagent) assay; assay type: biochemical; conditions: human liver CPT1 expressed in P. pastoris, cell extract; carnitine 500 μM, palmitoyl-CoA 80 μM, DTNB 300 μM
T2 construct: made in house; host or cells: Pichia pastoris strain X-33
T2 sequence (P50416 1-773): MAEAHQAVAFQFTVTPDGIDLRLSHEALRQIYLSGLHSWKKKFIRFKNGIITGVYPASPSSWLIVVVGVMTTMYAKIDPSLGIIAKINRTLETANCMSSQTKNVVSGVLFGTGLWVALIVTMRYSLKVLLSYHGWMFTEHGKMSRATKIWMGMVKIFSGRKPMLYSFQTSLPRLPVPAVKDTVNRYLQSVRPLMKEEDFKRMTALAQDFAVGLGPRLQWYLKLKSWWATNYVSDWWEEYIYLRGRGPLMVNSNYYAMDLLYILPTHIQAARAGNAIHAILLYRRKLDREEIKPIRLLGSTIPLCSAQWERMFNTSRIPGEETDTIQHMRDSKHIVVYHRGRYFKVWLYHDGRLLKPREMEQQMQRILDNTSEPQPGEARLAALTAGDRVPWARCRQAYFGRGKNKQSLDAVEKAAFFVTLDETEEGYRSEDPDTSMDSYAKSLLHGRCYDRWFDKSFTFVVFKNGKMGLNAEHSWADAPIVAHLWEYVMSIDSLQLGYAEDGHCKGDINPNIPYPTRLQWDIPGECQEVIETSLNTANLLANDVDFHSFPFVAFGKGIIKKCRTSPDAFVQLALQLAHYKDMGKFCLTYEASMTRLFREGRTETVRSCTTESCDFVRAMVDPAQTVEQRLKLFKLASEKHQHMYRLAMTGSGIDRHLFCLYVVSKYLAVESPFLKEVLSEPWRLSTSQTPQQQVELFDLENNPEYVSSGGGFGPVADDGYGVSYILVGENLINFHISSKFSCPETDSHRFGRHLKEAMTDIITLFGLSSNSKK
Procedure: as §1, §2, §3

Row | Compound | IC50 [1] [nM] | IC50 [2] [nM]
1 | CN(C)C[C@@H](CC(=O)O)NC(=O)CCCCCCCOCc1ccc(F)c(F)c1 [Example 1, (R)-3-[8-(3,4-Difluoro-benzyloxy)-octanoylamino]-4-dimethylamino-butyric acid] | 910 | 7770
2 | CN(C)C[C@@H](CC(=O)O)NC(=O)CCCCCCCOCc1cc(F)ccc1F [Example 2, (R)-3-[8-(2,5-Difluoro-benzyloxy)-octanoylamino]-4-dimethylamino-butyric acid] | 3490 | > 10000
3 | CN(C)C[C@@H](CC(=O)O)NC(=O)CCCCCCCOCc1ccc(C(F)(F)F)c(F)c1 [Example 7, (R)-4-Dimethylamino-3-[8-(3-fluoro-4-trifluoromethyl-benzyloxy)-octanoylamino]-butyric acid] | 591 | 5990
4 | CN(C)C[C@@H](CC(=O)O)NC(=O)CCCCCCCOCc1ccc(C(F)(F)F)cc1F [Example 10, (R)-4-Dimethylamino-3-[8-(2-fluoro-4-trifluoromethyl-benzyloxy)-octanoylamino]-butyric acid] | 694 | > 10000
5 | COc1c(F)c(F)c(COCCCCCCCC(=O)N[C@H](CC(=O)O)CN(C)C)c(F)c1F [Example 11, (R)-4-Dimethylamino-3-[8-(2,3,5,6-tetrafluoro-4-methoxy-benzyloxy)-octanoylamino]-butyric acid] | 2940 | > 10000
6 | CN(C)C[C@@H](CC(=O)O)NC(=O)CCCCCCCOCc1ccccc1F [Example 13, (R)-4-Dimethylamino-3-[8-(2-fluoro-benzyloxy)-octanoylamino]-butyric acid] | 2630 | > 10000
7 | CN(C)C[C@@H](CC(=O)O)NC(=O)CCCCCCCOCc1cccc(F)c1 [Example 14, (R)-4-Dimethylamino-3-[8-(3-fluoro-benzyloxy)-octanoylamino]-butyric acid] | 783 | > 10000
8 | CN(C)C[C@@H](CC(=O)O)NC(=O)CCCCCCCOCc1ccc(F)cc1 [Example 15, (R)-4-Dimethylamino-3-[8-(4-fluoro-benzyloxy)-octanoylamino]-butyric acid] | 2060 | 6550
9 | CN(C)C[C@@H](CC(=O)O)NC(=O)CCCCCCCOCc1ccccc1 [Example 17, (R)-3-(8-Benzyloxy-octanoylamino)-4-dimethylamino-butyric acid] | 1560 | > 10000
10 | CN(C)C[C@@H](CC(=O)O)NC(=O)CCCCCCCCOc1ccccc1F [Example 18, (R)-4-Dimethylamino-3-[9-(2-fluoro-phenoxy)-nonanoylamino]-butyric acid] | 452 | > 10000
11 | (R)-3-{3-[6-(2,3-Difluoro-benzyloxy)-hexyl]-ureido}-4-dimethylamino-butyric acid [Example 62] | 1440 | 

Now those with a lower IC50 [1], led by results:

Row | IC50 [1] [nM] | IC50 [2] [nM] | Compound
12 | 300 | > 10000 | CN(C)C[C@@H](CC(=O)O)NC(=O)CCCCCCCOCc1cccc2ccccc12 [Example 12, (R)-4-Dimethylamino-3-[8-(naphthalen-1-ylmethoxy)-octanoylamino]-butyric acid]
13 | 268 | 8630 | CN(C)C[C@@H](CC(=O)O)NC(=O)CCCCCCCCOc1ccc(F)cc1F [Example 22, (R)-3-[9-(2,4-Difluoro-phenoxy)-nonanoylamino]-4-dimethylamino-butyric acid]
14 | 265 | 6680 | CN(C)C[C@@H](CC(=O)O)NC(=O)CCCCCCCCOc1cccc(F)c1F [Example 21, (R)-3-[9-(2,3-Difluoro-phenoxy)-nonanoylamino]-4-dimethylamino-butyric acid]
15 | 189 | > 10000 | CN(C)C[C@@H](CC(=O)O)NC(=O)CCCCCCCOCc1ccc(C(F)(F)F)cc1 [Example 6, (R)-4-Dimethylamino-3-[8-(4-trifluoromethyl-benzyloxy)-octanoylamino]-butyric acid]
16 | 152 | > 10000 | COc1ccc(COCCCCCCCC(=O)N[C@H](CC(=O)O)CN(C)C)cc1 [Example 8, (R)-4-Dimethylamino-3-[8-(4-methoxy-benzyloxy)-octanoylamino]-butyric acid]
17 | 101 |  | CN(C)C[C@@H](CC(=O)O)NC(=O)CCCCCCCOCCOc1ccccc1 [Example 56, (R)-4-Dimethylamino-3-[8-(2-phenoxy-ethoxy)-octanoylamino]-butyric acid]
18 | 82 |  | CN(C)C[C@@H](CC(=O)O)NC(=O)CCCCCCCCOCCc1ccccc1 [Example 54, (R)-4-Dimethylamino-3-(9-phenethyloxy-nonanoylamino)-butyric acid]
19 | 73 | 5360 | CN(C)C[C@@H](CC(=O)O)NC(=O)CCCCCCCCOc1ccc(F)c(F)c1F [Example 24, (R)-4-Dimethylamino-3-[9-(2,3,4-trifluoro-phenoxy)-nonanoylamino]-butyric acid]
20 | 71 | 1660 | CN(C)C[C@@H](CC(=O)O)NC(=O)CCCCCCCCOc1ccc(F)c(F)c1 [Example 23, (R)-3-[9-(3,4-Difluoro-phenoxy)-nonanoylamino]-4-dimethylamino-butyric acid]
21 | 65 |  | CN(C)C[C@@H](CC(=O)O)NC(=O)CCCCCCCOCCCc1ccccc1 [Example 55, (R)-4-Dimethylamino-3-[8-(3-phenyl-propoxy)-octanoylamino]-butyric acid]
22 | 36 |  | CN(C)C[C@@H](CC(=O)O)NC(=O)CCCCCCCCCCOc1ccccc1 [Example 30, (R)-4-Dimethylamino-3-(11-phenoxy-undecanoylamino)-butyric acid]
23 | 21 | 1000 | CN(C)C[C@@H](CC(=O)O)NC(=O)CCCCCCCCOc1ccc(F)cc1 [Example 20, (R)-4-Dimethylamino-3-[9-(4-fluoro-phenoxy)-nonanoylamino]-butyric acid]
24 | 19 | 1470 | CN(C)C[C@@H](CC(=O)O)NC(=O)CCCCCCCCOc1ccc(-c2ccccc2)cc1 [Example 25, (R)-3-[9-(Biphenyl-4-yloxy)-nonanoylamino]-4-dimethylamino-butyric acid]
25 | 16 | 2330 | CN(C)C[C@@H](CC(=O)O)NC(=O)CCCCCCCCOc1cccc(F)c1 [Example 19, (R)-4-Dimethylamino-3-[9-(3-fluoro-phenoxy)-nonanoylamino]-butyric acid]
26 | 2 | 5790 | CN(C)C[C@@H](CC(=O)O)NC(=O)CCCCCCCOCc1ccc(-c2ccccc2)cc1 [Example 9, (R)-3-[8-(Biphenyl-4-ylmethoxy)-octanoylamino]-4-dimethylamino-butyric acid]
